This passage reports bioavailability results from patent US20230390260A1, “METHOD OF TREATMENT OF PAIN THROUGH BUCCAL ADMINISTRATION OF FLUNIXIN” (Intervet Inc., priority 2020, published 2023).

Where two headings read alike, the source gives them in different places.

For data set [1] the following is noted: bovine species, same (transdermal) formulation; cited from earlier work.
Data set [2] in a line: Pharmacokinetic study of flunixin in young piglets, comparing administration routes (plasma LC-MS/MS). Format: in vivo, piglets (swine). The settings on record: pig, read-out: % F (bioavailability). The method, then:
A pharmacokinetic study was conducted to compare the bioavailability of flunixin when administered buccally, intramuscularly, IV, and the transdermal routes via the perineum, ear canal, rectum, and midline in young piglets.
Piglets were administered either Banamine® Transdermal (buccal, perineum, ear canal, rectum, and midline) or Banamine®-S Injectable Solution (intravenous and intramuscular) at 5 to 6 days of age. Blood samples were collected from the piglets at 5 min, 15 min, 1 h, 2 h, 4 h, 8 h, 12 h, 24 h, 36 h, and 48 h for those treated with Banamine® Transdermal, and at 1 h, 2 h, 4 h, 8 h, 12 h, 24 h, 36 h, 48 h, 60 h, and 72 h for those treated with Banamine®-S Injectable Solution. Plasma samples were analyzed for flunixin concentration using an GLP-validated LC/MS-MS method. Swine plasma (K2EDTA) is extracted by protein precipitation with an acetonitrile solution of the internal standard (Flunixin-d3). The samples are then centrifuged, and the resulting supernatants are analyzed by LC-MS/MS using selective reaction monitoring in negative electrospray ionization mode. The ionic transitions monitored are m/z 295 to m/z 251 for Flunixin and m/z 298 to m/z 254 for the internal standard.
The following key pharmacokinetic parameters were calculated for each group (mean±standard error): […]

As for `Cc1c(Nc2ncccc2C(=O)O)cccc1C(F)(F)F` [flunixin, Flunixin], the bioavailability is 44% in data set [1]; 71% in data set [2] (im, Intramuscular, Banamine-S Injectable Solution, piglets); 40% in data set [2] (other: buccal, Buccal, Banamine Transdermal, piglets); 5% in data set [2] (topical or ocular, Midline, Banamine Transdermal, piglets (swine)).

The bioavailability is the share of a dose that reaches the circulation, judged against a reference dose that is usually intravenous.
